Source: ChEMBL document CHEMBL2057100, “The optimization of pyridazinone series of glucan synthase inhibitors” (Bioorg Med Chem Lett, 2012)
≈ marks a conversion by molar mass, not a printed value. Calls of active or inactive are those of the source. The calls are words filed in the database; no cut-off is given here.

Legend:
Beta-1,3-glucan synthase = molecular target: T1, Beta-1,3-glucan synthase (Candida albicans, UniProt O13383); test: Inhibition of 1,3-beta-D-glucan synthase in Candida albicans BWP17 membranes; assay type: cell membranes
T1 sequence (O13383 whole entry): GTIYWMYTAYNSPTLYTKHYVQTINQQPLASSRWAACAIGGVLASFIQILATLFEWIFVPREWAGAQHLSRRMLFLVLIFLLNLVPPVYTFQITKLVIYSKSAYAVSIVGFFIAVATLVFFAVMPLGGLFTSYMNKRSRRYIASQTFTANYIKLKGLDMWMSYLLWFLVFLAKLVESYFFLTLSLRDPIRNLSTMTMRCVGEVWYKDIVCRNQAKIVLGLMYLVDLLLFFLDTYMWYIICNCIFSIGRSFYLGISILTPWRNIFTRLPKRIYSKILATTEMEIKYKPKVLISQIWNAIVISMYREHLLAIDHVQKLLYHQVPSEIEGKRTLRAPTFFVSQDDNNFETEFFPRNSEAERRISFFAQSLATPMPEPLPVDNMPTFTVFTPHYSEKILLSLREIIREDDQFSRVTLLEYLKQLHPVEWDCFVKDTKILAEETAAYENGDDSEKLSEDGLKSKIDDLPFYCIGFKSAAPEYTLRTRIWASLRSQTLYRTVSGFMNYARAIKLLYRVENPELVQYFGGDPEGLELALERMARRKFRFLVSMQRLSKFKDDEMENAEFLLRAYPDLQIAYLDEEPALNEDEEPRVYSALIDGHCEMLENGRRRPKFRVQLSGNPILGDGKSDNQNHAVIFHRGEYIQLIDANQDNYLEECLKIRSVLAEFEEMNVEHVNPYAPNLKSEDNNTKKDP

Candida albicans [1] = test: Antifungal activity against Candida albicans C693 by broth dilution method; assay type: functional; conditions: read-out: MIC100
Nakaseomyces glabratus = test: Antifungal activity against Candida glabrata C624 by broth dilution method; assay type: functional; conditions: read-out: MIC100
[2] = AUC (0 to 6 hrs) in rat at 10 mg/kg, po; assay type: ADME, organism-based, Plasma; parameters: time < 6 hr, dose 10 mg/kg, route oral; conditions: plasma
[3] = Cmax in rat at 10 mg/kg, po; assay type: ADME, organism-based; parameters: dose 10 mg/kg, route oral; conditions: in vivo
Aspergillus fumigatus [4] = test: Antifungal activity against Aspergillus fumigatus ND158 by broth dilution method; assay type: functional; conditions: read-out: MEC
Aspergillus fumigatus [5] = test: Induction of morphological changes in Aspergillus fumigatus ND158 assessed as induction of truncated and highly branched hyphae; assay type: functional, organism-based
Candida albicans [6] = test: Antifungal activity against Candida albicans C697 infected in immune compromised mouse assessed as reduction of fungal burden in kidney at 100 mg/kg, ip; assay type: functional, organism-based; parameters: dose 100 mg/kg
Candida albicans [7] = test: Antifungal activity against Candida albicans C697 infected in normal mouse assessed as reduction of fungal burden in kidney at 100 mg/kg, ip; assay type: functional, organism-based; parameters: dose 100 mg/kg

| IC50 (Beta-1,3-glucan synthase) [nM] | MIC (Candida albicans [1]) [µg/mL] | MIC (Nakaseomyces glabratus) [µg/mL] | AUC(0-t) at 6 h [2] [ng·h/mL] | Cmax [3] [ng/mL] | Structure (SMILES) | minimal effective concentration (Aspergillus fumigatus [4]) [µg/mL] | Activity (Aspergillus fumigatus [5]) | Activity (Candida albicans [6]) | Activity (Candida albicans [7]) |
| --- | --- | --- | --- | --- | --- | --- | --- | --- | --- |
| 1650 | 25 (≈ 45.9 µM) | 0.78 (≈ 1.43 µM) | – | – | O=c1c(OC2CCC(O)C2)c(N2CCN(S(=O)(=O)Cc3ccccc3)CC2)cnn1-c1cccc(Cl)c1 (stereo not drawn) | – | – | – | – |
| 110 | 1.56 (≈ 2.85 µM) | 0.05 (≈ 0.0914 µM) | – | – | O=c1c(OC2CCCC2)c(N2CCN(S(=O)(=O)Cc3ccc(F)cc3)CC2)cnn1-c1cccc(Cl)c1 | – | – | – | – |
| 160 | 1.56 (≈ 2.77 µM) | 0.05 (≈ 0.0887 µM) | – | – | O=c1c(OC2CCCC2)c(N2CCN(S(=O)(=O)Cc3cccc(Cl)c3)CC2)cnn1-c1cccc(Cl)c1 | – | – | – | – |
| 4190 | > 50 | 25 (≈ 43.6 µM) | – | – | O=C(O)c1ccc(CS(=O)(=O)N2CCN(c3cnn(-c4cccc(Cl)c4)c(=O)c3OC3CCCC3)CC2)cc1 | – | – | – | – |
| 73.1 | 0.39 (≈ 0.713 µM) | 0.2 (≈ 0.366 µM) | – | – | O=c1c(OC2CCCC2)c(N2CCN(S(=O)(=O)Cc3ccccc3F)CC2)cnn1-c1cccc(Cl)c1 | – | – | – | – |
| 1380 | 12.5 (≈ 21.6 µM) | 0.78 (≈ 1.35 µM) | – | – | O=c1c(OC2CCc3cccnc32)c(N2CCN(S(=O)(=O)Cc3ccccc3)CC2)cnn1-c1cccc(Cl)c1 (stereo not drawn) | – | – | – | – |
| 54.8 | 0.2 (≈ 0.366 µM) | < 0.02 | – | – | O=c1c(OCC2(CF)CC2)c(N2CCN(S(=O)(=O)Cc3ccccc3)CC2)cnn1-c1cccc(Cl)c1 | – | – | – | – |
| 1060 | 6.25 (≈ 11 µM) | 0.39 (≈ 0.689 µM) | – | – | O=c1c(OCCc2ccccn2)c(N2CCN(S(=O)(=O)Cc3ccccc3)CC2)cnn1-c1cccc(Cl)c1 | – | – | – | – |
| 917 | 3.13 (≈ 5.74 µM) | 0.02 (≈ 0.0367 µM) | – | – | O=c1c(OC2CCOCC2)c(N2CCN(S(=O)(=O)Cc3ccccc3)CC2)cnn1-c1cccc(Cl)c1 | – | – | – | – |
| 1470 | 0.78 (≈ 1.44 µM) | < 0.02 | – | – | O=c1c(OC2CCCCC2)c(N2CCN(S(=O)(=O)Cc3ccccc3)CC2)cnn1-c1cccc(Cl)c1 | – | – | – | – |

The next lines start with the compound.

| Structure (SMILES) | IC50 (Beta-1,3-glucan synthase) [nM] | MIC (Candida albicans [1]) [µg/mL] | MIC (Nakaseomyces glabratus) [µg/mL] | AUC(0-t) at 6 h [2] [ng·h/mL] | Cmax [3] [ng/mL] | minimal effective concentration (Aspergillus fumigatus [4]) [µg/mL] | Activity (Aspergillus fumigatus [5]) | Activity (Candida albicans [6]) | Activity (Candida albicans [7]) |
| --- | --- | --- | --- | --- | --- | --- | --- | --- | --- |
| O=c1c(OC2CCCC2)c(N2CCN(S(=O)(=O)Cc3cc(C(F)(F)F)cc(C(F)(F)F)c3)CC2)cnn1-c1cccc(Cl)c1 | > 226000 | > 50 | > 50 | – | – | – | – | – | – |
| Nc1cccc(CS(=O)(=O)N2CCN(c3cnn(-c4cc(F)cc(F)c4)c(=O)c3OC3CCCC3)CC2)c1 | 128 | 0.52 (≈ 0.953 µM) | 0.13 (≈ 0.238 µM) | 5700 | – | – | – | – | – |
| Nc1ccc(CS(=O)(=O)N2CCN(c3cnn(-c4cc(F)cc(F)c4)c(=O)c3OC3CCCC3)CC2)cc1 | 110 | 1.04 (≈ 1.91 µM) | 0.26 (≈ 0.477 µM) | 8100 | – | – | – | – | – |
| O=c1c(OC2CCCC2)c(N2CCN(S(=O)(=O)Cc3ccccc3)CC2)cnn1-c1cc(F)cc(F)c1 | 56.5 | 0.39 (≈ 0.735 µM) | 0.4 (≈ 0.754 µM) | – | – | – | – | – | – |
| O=c1c(OC2CCCC2)c(N2CCN(S(=O)(=O)Cc3ccncc3)CC2)cnn1-c1cc(F)cc(F)c1 | 564 | 3.1 (≈ 5.83 µM) | 0.2 (≈ 0.376 µM) | 20 | – | – | – | – | – |
| CC1(COc2c(N3CCN(S(=O)(=O)Cc4ccc(N)c(F)c4)CC3)cnn(-c3cc(F)cc(F)c3)c2=O)CC1 | 53.2 | 0.26 (≈ 0.461 µM) | 0.06 (≈ 0.106 µM) | 890 | 310 | 2.08 | – | – | – |
| Cc1cc(CS(=O)(=O)N2CCN(c3cnn(-c4cccc(Cl)c4)c(=O)c3OCC3(C)CC3)CC2)ccc1N | – | – | – | – | – | – | Active | Active | Active |
| CCc1cc(CS(=O)(=O)N2CCN(c3cnn(-c4cccc(Cl)c4)c(=O)c3OCC3(C)CC3)CC2)ccc1N | 315 | 4.2 (≈ 7.34 µM) | 0.13 (≈ 0.227 µM) | 9400 | 2300 | 4.2 | – | – | – |
| CNc1ccc(CS(=O)(=O)N2CCN(c3cnn(-c4cccc(Cl)c4)c(=O)c3OCC3(C)CC3)CC2)cc1 | 17.9 | 0.2 (≈ 0.358 µM) | 0.78 (≈ 1.4 µM) | – | – | > 50 | – | – | – |
| CC1(COc2c(N3CCN(S(=O)(=O)Cc4ccc(N)cc4)CC3)cnn(-c3cccc(Cl)c3)c2=O)CC1 | 110 | 1.04 (≈ 1.91 µM) | 0.26 (≈ 0.478 µM) | 8100 | 1900 | 4.2 | – | – | – |
